The test system of data set [1] is antibody-producer B lymphocytes (spleen). Nature of the data set: Test 1: primary antibody production (Jerne test) in spleen of SRBC immunized mice. The format is in vivo, mice (male B6 D2F1). Here is the method: (§1) Test 1: Evaluation of the "in vitro-ex vivo" effect of repeated oral administrations of ST 722 on the primary antibody production (Jerne test) in the spleen of SRBC (Sheep Red Blood Cells) immunized mice.
(§2) Male B6 D2F1 mice (C. River) aged 8 weeks (6 animals each group) were utilized.
(§3) The substance (ST 722) was administered per os at the dose of 100 mg/kg/day from day -2 through day +2 (immunization at day 0). The animals were immunized by intraperitoneal route with a concentration of 1.0×10^8 cells/mouse in 0.2 ml of sterile saline.
(§4) Five days later, spleens to be submitted to teasing process were removed from the animals sacrificed by cervical dislocation. After standardization at 1.0×10^7 cells/ml. the splenocytes (0.1 ml) were mixed with warm agar-Hank's (2 ml) and 10% SRBC in PBS (0.2 ml) and seeded in Petri dishes (samples tested in triplicates) and incubated at 37° C. for 60 min.
After addition of complement (2 ml of guinea pig serum diluted 1:10 in Tris buffer), samples were further incubated at 37° C. for 30 min. To block the haemolysis reaction, the Petri dishes were cooled at 4° C. and the haemolysis plaques were counted.
The antibody response to SRBC is expressed as number of plaque forming cells (PFC) per 1.0×10^6 splenocytes as well as per spleen.

The nature of data set [2]: Test 1: body and lymphoid organ weight in SRBC immunized mice. The format is in vivo, mice (male B6 D2F1). Particulars: 100 mg/kg/day per os, day -2 through day +2; x ± S.E. The method, then:
as §1, §2, §3, §4

Data set [3] has as its system Fusarium sp. (ISS 1). In words: MIC for filamentous fungi. Format: cell-based. Particulars: read-out: Minimal Inhibitory Concentration (MIC). The method in brief: (§5)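 Broth testing uses the yeast-like fungi procedure and the previous assay medium. Conidial inoculum of 5.0×10^4 CFU/ml comes from 72-hour Sabouraud agar cultures rinsed off with Sabouraud/Tween 80.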
Data set [4] deals with Aspergillus niger (ATCC 16404). In words: MIC for filamentous fungi. Particulars: ATCC16404, read-out: Minimal Inhibitory Concentration (MIC). Format: cell-based. The method in brief:
as §5

Data set [5] deals with Aspergillus fumigatus (ATCC 28212). Nature of the data set: MIC for filamentous fungi. The format is cell-based. Particulars: ATCC28212, read-out: Minimal Inhibitory Concentration (MIC). The method in brief: as §5
In data set [6] the test system is Aspergillus fumigatus (2/A). In words: MIC for filamentous fungi. Format: cell-based. Particulars: read-out: Minimal Inhibitory Concentration (MIC). The procedure, abridged:
as §5

Data set [7] deals with Mucor mucedo (ATCC 7941). In words: MIC for filamentous fungi. The format is cell-based. Conditions: ATCC7941, read-out: Minimal Inhibitory Concentration (MIC). The procedure, abridged:
as §5

In data set [8] the test system is Aspergillus fumigatus (1/A). In words: MIC for filamentous fungi. Format: cell-based. Conditions: read-out: Minimal Inhibitory Concentration (MIC). The procedure, abridged: as §5
Data set [9] has as its system Penicillium sp. (1302). In words: MIC for filamentous fungi. The format is cell-based. Particulars: read-out: Minimal Inhibitory Concentration (MIC). The method in brief: as §5
In data set [10] the test system is Aspergillus fumigatus (C/1). Nature of the data set: MIC for filamentous fungi. The format is cell-based. Particulars: read-out: Minimal Inhibitory Concentration (MIC). The method in brief: as §5
Data set [11] has as its system peritoneal macrophages. Nature of the data set: Test 4: peritoneal macrophage number in mice. Particulars: 100 mg/kg/day oral, 5 consecutive days. The format is in vivo, mice (male B6 D2 F1). Here is the method: Test 4: Evaluation of the effect of repeated oral administrations of ST 722 on the peritoneal macrophage number in mice.
Male B6 D2 F1 mice (C. River) aged 10 weeks (6 animals each group) were orally treated with the substance ST 722 at the dose of 100 mg/kg/day for 5 consecutive days. Twenty-four hours after the last administration, the animals were sacrificed, the peritoneal exudate cells (PEC) collected and the macrophage number determined.

The test system of data set [12] is Trichophyton rubrum (IHEM 4274). Nature of the data set: MIC for dermatophytic fungi. Particulars: 35° C., 96 hours, read-out: Minimal Inhibitory Concentration (MIC). Format: cell-based. Here is the method: (§6) The following strains were used: Trichophyton menthagrophytes ATCC 9533, Trichophyton rubrum IHEM 4274, Microsporum canis IHEM 3522, Epydermophyton floccosum IHEM 3495. The tested substances were: ST 722, ST 1033, ST 1037, ST 1050, ST 1051, ST 1052,. ST 1053.
(§7) The assay was performed following the same procedure described for the yeasts, by using 7-day fungi cultures grown at 30° C. in Potato Dextrose agar, and harvested with Sabouraud broth and Tween 80 (0.5%).
(§8) After washing with Yeast Nitrogen Base, supplemented with asparagine and glucose (as carbon source), the fungal suspension was fragmented using a tissue grinder until the largest clumps or aggregates were undetectable within the grinder. This fungal suspension was then appropriately diluted in YNB to yield a concentration of 2.0×10^5 infective particles/ml (small mycelium fragments, micro-and macroaleuriospores).
(§9) Volumes of 100 μl both of the fungal suspensions and substance solutions, two-fold serially diluted in assay medium, were distributed into each well of a microtiter plate (96 wells, round bottom), which was incubated at 35° C. for 96 hours.

The test system of data set [13] is Epidermophyton floccosum (IHEM 3495). Nature of the data set: MIC for dermatophytic fungi. Conditions: 35° C., 96 hours, read-out: Minimal Inhibitory Concentration (MIC). Format: cell-based. Here is the method: as §6, §7, §8, §9
In data set [14] the test system is Microsporum canis (IHEM 3522). Nature of the data set: MIC for dermatophytic fungi. Conditions: 35° C., 96 hours, read-out: Minimal Inhibitory Concentration (MIC). Format: cell-based. Here is the method: as §6, §7, §8, §9
Data set [15] deals with Trichophyton menthagrophites (ATCC 9533). In words: MIC for dermatophytic fungi. The format is cell-based. Conditions: ATCC9533, 35° C., 96 hours, read-out: Minimal Inhibitory Concentration (MIC). The method, then:
as §6, §7, §8, §9

Where [16] appears, read: 100 mg/kg/day per os, day -2 through day +2, x ± S.E.

As for `CCCCCCCCCCCOC(=O)C[C@H](C[N+](C)(C)C)OC(=O)CC(C)C` [ST 722, isovaleryl-L-carnitine undecyl ester chloride], the “PFC/10^6 cells” value in data set [1] (setting [16]) was 261 ± 34 PFC/10^6 cells. Also, the PFC/spleen in [1] (setting [16]) is 44440 ± 6087 PFC/spleen. For the same molecule, in [1] (5 consecutive days oral), the “PFC number after antigenic challenge” value was “did not cause a statistically significant modification in PFC number”. Besides, the Body weight in [2] is on record as 25.12 ± 0.77 g; in data set [11] (± S.E., 6 animals), 28.13 ± 1.30 g. In addition, the Spleen weight in data set [2] stood at 94.33 ± 4.12 mg. For the same molecule, the Thymus weight in data set [2] was 59.50 ± 3.62 mg. The MIC in data set [3] came to 6.25 µg/mL; in data set [4], 12.5 µg/mL; in data set [5] it was 12.5 µg/mL; in [6], 12.5 µg/mL; in data set [7], 50 µg/mL; in [8], 12.5 µg/mL. The MIC in [9] came to 12.5 µg/mL; in data set [10] it was 12.5 µg/mL; in data set [12], 12.5 µg/mL; in data set [13] it was 50 µg/mL; in data set [14], 25 µg/mL; in data set [15], 25 µg/mL. Also, the “toxic effect in PEC macrophage population” value in data set [11] is “No toxic effect has been observed”. Besides, in [11] (6 pooled samples), the “PEC Mo” value came out at 63%. Further, the “increase in the peritoneal macrophages number” value in [11] (versus control) is “about 60%”.

(Values after US5525627A, “Esters of acyl carnitines with long-chain aliphatic alcohols and pharmaceutical compositions containing same having antimycotic activity” (Sigma-Tau Industrie Farmaceutiche Riunite S.p.A., priority 1992, dated 1996).)
